Measured values from the NIST ThermoML archive (doi:10.1021/je700132w).
Numbers after ± are expanded uncertainties.

Conditions: Liquid; for Critical pressure: Direct measurement; for Critical density: Rectilinear diameter; for Critical temperature: Visual observation in an unstirred cell

## C=CCC [1-butene]
  Critical pressure: 4000 ± 60 kPa
  Critical density: 233 ± 7 kg/m3
  Critical temperature: 421.2 ± 0.6 K

## CC(C)CC(C)(C)C [2,2,4-trimethylpentane]
  Critical pressure: 2570 ± 60 kPa
  Critical density: 251 ± 7 kg/m3
  Critical temperature: 544.1 ± 0.6 K

## CC(C)C [2-methylpropane]
  Critical pressure: 3620 ± 60 kPa
  Critical density: 220 ± 6 kg/m3
  Critical temperature: 409.9 ± 0.6 K

## O=C=O [carbon dioxide]
  Critical pressure: 7380 ± 60 kPa
  Critical density: 473 ± 8 kg/m3
  Critical temperature: 304.8 ± 0.6 K
